# Test results published in patent EP4273147A1, “SUBSTITUTED SPIROLACTAMS, SALTS THEREOF AND THEIR USE AS HERBICIDALLY ACTIVE SUBSTANCES” (Bayer Aktiengesellschaft, priority 2022, dated 2023).
# Experiments:
# [1] = test system: ABUTH; test: Herbicidal pre-emergence action (Table A1); assay type: in vivo, Abutilon theophrasti; details: application rate 1280 g/ha; visual grading after ca. 3 weeks vs untreated controls (100% = plants have died off, 0% = as control plants)
# Outline: (§1)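 One monocotyledonous and one dicotyledonous weed species shared each pot. Seeds were sown in sandy loam and covered over with soil.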
# [2] = test system: ECHCG; test: Herbicidal pre-emergence action (Table A2); assay type: in vivo, Echinochloa crus-galli; details: application rate 320 g/ha; visual grading after ca. 3 weeks
# Outline: as §1
# [3] = test system: LOLRI; test: Herbicidal pre-emergence action (Table A3); assay type: in vivo, Lolium rigidum; details: application rate 320 g/ha; visual grading after ca. 3 weeks
# Outline: as §1
# [4] = test system: MATIN; test: Herbicidal pre-emergence action (Table A4); assay type: in vivo, Matricaria inodora; details: application rate 320 g/ha; visual grading after ca. 3 weeks
# Outline: as §1
# [5] = test system: SETVI; test: Herbicidal pre-emergence action (Table A5); assay type: in vivo, Setaria viridis; details: application rate 320 g/ha; visual grading after ca. 3 weeks
# Outline: as §1
# [6] = test system: STEME; test: Herbicidal pre-emergence action (Table A6); assay type: in vivo, Stellaria media; details: application rate 320 g/ha; visual grading after ca. 3 weeks
# Outline: as §1
# [7] = test system: POAAN; test: Herbicidal pre-emergence action (Table A7); assay type: in vivo, Poa annua; details: application rate 320 g/ha; visual grading after ca. 3 weeks
# Outline: as §1
# [8] = test system: ALOMY; test: Herbicidal pre-emergence action (Table A9); assay type: in vivo, Alopecurus myosuroides; details: application rate 320 g/ha; visual grading after ca. 3 weeks
# Outline: as §1
# [9] = test system: KCHSC; test: Herbicidal pre-emergence action (Table A10); assay type: in vivo, Kochia scoparia; details: application rate 1280 g/ha; visual grading after ca. 3 weeks
# Outline: as §1
# [10] = test system: VERPE; test: Herbicidal pre-emergence action (Table A11); assay type: in vivo, Veronica persica; details: application rate 320 g/ha; visual grading after ca. 3 weeks
# Outline: as §1
# [11] = test system: ABUTH; test: Herbicidal post-emergence action (Table B1); assay type: in vivo, Abutilon theophrasti; details: application rate 1280 g/ha; treated at one-leaf stage; rated visually after about 3 weeks vs untreated controls (100% = plants have died, 0% = like control plants)
# Outline: (§2)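 Greenhouse post-emergence screen on potted weeds in sandy loam, treatment at one-leaf stage, visual % control scored ~3 weeks later against untreated plants.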
# [12] = test system: ALOMY; test: Herbicidal post-emergence action (Table B2); assay type: in vivo, Alopecurus myosuroides; details: application rate 1280 g/ha; rated visually after about 3 weeks
# Outline: as §2
# [13] = test system: ECHCG; test: Herbicidal post-emergence action (Table B3); assay type: in vivo, Echinochloa crus-galli; details: application rate 320 g/ha; rated visually after about 3 weeks
# Outline: as §2
# [14] = test system: MATIN; test: Herbicidal post-emergence action (Table B6); assay type: in vivo, Matricaria inodora; details: application rate 320 g/ha; rated visually after about 3 weeks
# Outline: as §2
# [15] = test system: POAAN; test: Herbicidal post-emergence action (Table B7); assay type: in vivo, Poa annua; details: application rate 320 g/ha
# Outline: as §2
# [16] = test system: SETVI; test: Herbicidal post-emergence action (Table B8); assay type: in vivo, Setaria viridis; details: application rate 1280 g/ha
# Outline: as §2
# [17] = test system: STEME; test: Herbicidal post-emergence action (Table B9); assay type: in vivo, Stellaria media; details: application rate 1280 g/ha
# Outline: as §2
# [18] = test system: VERPE; test: Herbicidal post-emergence action (Table B10); assay type: in vivo, Veronica persica; details: application rate 320 g/ha
# Outline: as §2
# [19] = test system: ALOMY; test: Herbicidal pre-emergence action, section C (Table C2); assay type: in vivo, Alopecurus myosuroides; details: application rate 320 g/ha; visual grading after ca. 3 weeks
# [20] = test system: ECHCG; test: Herbicidal pre-emergence action, section C (Table C6); assay type: in vivo, Echinochloa crus-galli; details: visual grading after ca. 3 weeks
# [21] = test system: LOLRI; test: Herbicidal pre-emergence action, section C (Table C7); assay type: in vivo, Lolium rigidum; details: application rate 320 g/ha; visual grading after ca. 3 weeks
# [22] = test system: MATIN; test: Herbicidal pre-emergence action, section C (Table C8); assay type: in vivo, Matricaria inodora; details: application rate 320 g/ha; visual grading after ca. 3 weeks
# [23] = test system: SETVI; test: Herbicidal pre-emergence action, section C (Table C10); assay type: in vivo, Setaria viridis; details: application rate 80 g/ha; visual grading after ca. 3 weeks
# [24] = test system: VIOTR; test: Herbicidal pre-emergence action, section C (Table C12); assay type: in vivo, Viola tricolor; details: visual grading after ca. 3 weeks
# [25] = test system: ZEAMX; test: Pre-emergence effects on crop plants (Table D1); assay type: in vivo, Zea mays; details: crop plant; application rate 80 g/ha; visual grading after ca. 3 weeks
# [26] = test system: GLXMA; test: Pre-emergence effects on crop plants (Table D4); assay type: in vivo, Glycine max; details: crop plant; application rate 80 g/ha; visual grading after ca. 3 weeks
# [27] = test system: BRSNW; test: Pre-emergence effects on crop plants (Table D5); assay type: in vivo, Brassica napus; details: crop plant; application rate 80 g/ha; visual grading after ca. 3 weeks
# [28] = test system: ALOMY; test: Herbicidal post-emergence action, section E (Table E2); assay type: in vivo, Alopecurus myosuroides; details: application rate 320 g/ha; assessed visually after ca. 3 weeks
# Source text: (§3) 2 to 3 weeks after sowing, the test plants were sprayed in the single-leaf stage.
# [29] = test system: ECHCG; test: Herbicidal post-emergence action, section E (Table E5); assay type: in vivo, Echinochloa crus-galli; details: application rate 320 g/ha; assessed visually after ca. 3 weeks
# Source text: as §3
# [30] = test system: LOLRI; test: Herbicidal post-emergence action, section E (Table E6); assay type: in vivo, Lolium rigidum; details: application rate 320 g/ha; assessed visually after ca. 3 weeks
# Source text: as §3
# [31] = test system: SETVI; test: Herbicidal post-emergence action, section E (Table E8); assay type: in vivo, Setaria viridis; details: application rate 320 g/ha; assessed visually after ca. 3 weeks
# Source text: as §3
# [32] = test system: VERPE; test: Herbicidal post-emergence action, section E (Table E9); assay type: in vivo, Veronica persica; details: application rate 320 g/ha; assessed visually after ca. 3 weeks
# Source text: as §3
# [33] = test system: ZEAMX; test: Post-emergence effects on crop plants (Table F1); assay type: in vivo, Zea mays; details: application rate 320 g/ha, crop plant ZEAMX
# Source text: as §3
# [34] = test system: TRZAS; test: Post-emergence effects on crop plants (Table F2); assay type: in vivo, Triticum aestivum; details: crop plant TRZAS
# Source text: as §3
# [35] = test system: ORYZA; test: Post-emergence effects on crop plants (Table F3); assay type: in vivo, Oryza sativa; details: application rate 80 g/ha, crop plant ORYZA
# Source text: as §3
# [36] = test system: GLXMA; test: Post-emergence effects on crop plants (Table F4); assay type: in vivo, Glycine max; details: application rate 80 g/ha, crop plant GLXMA
# Source text: as §3
# [37] = test system: BRSNW; test: Post-emergence effects on crop plants (Table F5); assay type: in vivo, Brassica napus; details: application rate 80 g/ha, crop plant BRSNW
# Source text: as §3
# [38] = test system: ORYZA; test: Pre-emergence effects on crop plants (Table D3); details: crop plant; application rate 80 g/ha; visual grading after ca. 3 weeks
# [39] = test system: AMARE; test: Herbicidal pre-emergence action, section C (Table C3); assay type: in vivo, Amaranthus retroflexus; details: application rate 320 g/ha; visual grading after ca. 3 weeks
# [40] = test system: DIGSA; test: Herbicidal pre-emergence action, section C (Table C5); assay type: in vivo, Digitaria sanguinalis; details: application rate 80 g/ha; visual grading after ca. 3 weeks
# [41] = test system: POLCO; test: Herbicidal pre-emergence action, section C (Table C9); assay type: in vivo, Polygonum convolvulus; details: application rate 80 g/ha; visual grading after ca. 3 weeks
# [42] = test system: VERPE; test: Herbicidal pre-emergence action, section C (Table C11); assay type: in vivo, Veronica persica; details: application rate 320 g/ha; visual grading after ca. 3 weeks
# [43] = test system: ABUTH; test: Herbicidal post-emergence action, section E (Table E1); assay type: in vivo, Abutilon theophrasti; details: application rate 320 g/ha; assessed visually after ca. 3 weeks
# Source text: as §3
# [44] = test system: VIOTR; test: Herbicidal post-emergence action, section E (Table E10); assay type: in vivo, Viola tricolor; details: application rate 320 g/ha; assessed visually after ca. 3 weeks
# Source text: as §3
compound,measurement,setting,value
O=C1N(Cc2ccccc2F)CCCC12CCCN(Cc1cccc(F)c1F)C2=O (racemic) [I-003],pre-emergence activity against ABUTH,[1],90%
same,pre-emergence activity against ECHCG,[2],100%
same,pre-emergence activity against LOLRI,[3],100%
same,pre-emergence activity against MATIN,[4],90%
same,pre-emergence activity against SETVI,[5],100%
same,pre-emergence activity against STEME,[6],90%
same,pre-emergence activity against POAAN,[7],100%
same,pre-emergence activity against ALOMY,[8],90%
same,pre-emergence activity against KCHSC,[9],90%
same,pre-emergence activity against VERPE,[10],90%
same,post-emergence activity against ABUTH,[11],90%
same,post-emergence activity against ALOMY,[12],90%
same,post-emergence activity against ECHCG,[13],90%
same,post-emergence activity against MATIN,[14],90%
same,post-emergence activity against POAAN,[15],100%
same,post-emergence activity against SETVI,[16],90%
same,post-emergence activity against STEME,[17],100%
same,post-emergence activity against VERPE,[18],90%
same,pre-emergence activity against ALOMY,[19],90%
same,pre-emergence activity against ECHCG,[20]; application rate 80 g/ha,100%
same,pre-emergence activity against LOLRI,[21],90%
same,pre-emergence activity against MATIN,[22],90%
same,pre-emergence activity against SETVI,[23],100%
same,pre-emergence activity against VIOTR,[24]; application rate 320 g/ha,90%
same,pre-emergence activity against ZEAMX,[25],10%
same,pre-emergence activity against GLXMA,[26],10%
same,pre-emergence activity against BRSNW,[27],10%
same,post-emergence activity against ALOMY,[28],90%
same,post-emergence activity against ECHCG,[29],80%
same,post-emergence activity against LOLRI,[30],80%
same,post-emergence activity against SETVI,[31],80%
same,post-emergence activity against VERPE,[32],80%
same,post-emergence activity against ZEAMX,[33],20%
same,post-emergence activity against TRZAS,[34]; application rate 80 g/ha,0%
same,post-emergence activity against ORYZA,[35],20%
same,post-emergence activity against GLXMA,[36],20%
same,post-emergence activity against BRSNW,[37],20%
same,pre-emergence activity against ORYZA,[38],20%
"O=C1N(Cc2c(F)cccc2F)CCCC12CCCN(Cc1c(F)cccc1F)C2=O (racemic) [I-006, 2,8-bis[(2,6-difluorophenyl)methyl]-2,8-diazaspiro[5.5]undecane-1,7-dione]",pre-emergence activity against ALOMY,[19],100%
same,pre-emergence activity against AMARE,[39],90%
same,pre-emergence activity against DIGSA,[40],100%
same,pre-emergence activity against ECHCG,[20]; application rate 320 g/ha,100%
same,pre-emergence activity against LOLRI,[21],100%
same,pre-emergence activity against MATIN,[22],80%
same,pre-emergence activity against POLCO,[41],100%
same,pre-emergence activity against SETVI,[23],100%
same,pre-emergence activity against VERPE,[42],90%
same,pre-emergence activity against VIOTR,[24]; application rate 38 g/ha (so in the source),90%
same,post-emergence activity against ABUTH,[43],80%
same,post-emergence activity against ALOMY,[28],90%
same,post-emergence activity against ECHCG,[29],80%
same,post-emergence activity against VERPE,[32],80%
same,post-emergence activity against VIOTR,[44],80%
same,post-emergence activity against ZEAMX,[33],20%
same,post-emergence activity against TRZAS,[34]; application rate 320 g/ha,10%
same,post-emergence activity against ORYZA,[35],10%
same,post-emergence activity against GLXMA,[36],20%
same,post-emergence activity against BRSNW,[37],20%
